Laboratory results as given in ChEMBL document CHEMBL4513161, “CO-ADD screening of MMV (CH) - Pandemic Response Box” (2021).
Values after ≈ are worked out from the molar mass of the structure shown. Where a name gives a salt, the structure may show the parent alone.

Experiments:
[1] = system: Pseudomonas aeruginosa; experiment: Antibacterial activity against Pseudomonas aeruginosa PAO397 [PAO1 d(mexAB-oprM) d(mexCD-oprJ) d(mexEF-oprN) d(mexJKL) d(mexXY) d(opmH)] (CO-ADD:GN_211); MIC in CAMBH media using NBS plates, by OD(600); type: functional; conditions: ASSAY_TEST Inhibition of Bacterial Growth, detection method Absorption (OD600), MEDIA CAMHB, plate type 384well, CORNING #3640, time 18 hr
[2] = system: Staphylococcus aureus; experiment: microbe, parasite or virus in culture; conditions: ATCC 43300, 18 h, ASSAY_TEST Inhibition of Bacterial Growth, detection method Absorption (OD600), MEDIA CAMHB, plate type 384well, NBS, CORNING #3640
Description: Antibacterial activity against Staphylococcus aureus MRSA ATCC 43300 (CO-ADD:GP_020); MIC in CAMBH media, using NBS plates, by OD(600)

[3] = system: Cryptococcus neoformans
Description: Antifungal activity against Cryptococcus neoformans H99 ATCC 208821 (CO-ADD:FG_002); MIC in YNB media using NBS plates, by Resazurin OD(600-570)

[4] = system: Pseudomonas aeruginosa; experiment: microbe, parasite or virus in culture; conditions: ATCC 27853, 18 h, ASSAY_TEST Inhibition of Bacterial Growth, detection method Absorption (OD600), MEDIA CAMHB, plate type 384well, NBS, CORNING #3640
Description: Antibacterial activity against Pseudomonas aeruginosa ATCC 27853 (CO-ADD:GN_042); MIC in CAMBH media using NBS plates, by OD(600)

[5] = system: Klebsiella pneumoniae; experiment: microbe, parasite or virus in culture; conditions: ATCC 700603, 18 h, ASSAY_TEST Inhibition of Bacterial Growth, detection method Absorption (OD600), MEDIA CAMHB, plate type 384well, NBS, CORNING #3640
Description: Antibacterial activity against Klebsiella pneumoniae MDR ATCC 70063 (CO-ADD:GN_003); MIC in CAMBH media using NBS plates, by OD(600)

[6] = system: Candida albicans; experiment: microbe, parasite or virus in culture; conditions: ATCC 90028, ASSAY_TEST Inhibition of Fungal Growth, detection method Absorption (OD530), plate type 384well, NBS, CORNING #3640
Description: Antifungal activity against Candida albicans ATCC 90028 (CO-ADD:FG_001); MIC in YNB media using NBS plates, by OD630

[7] = system: HEK293; experiment: cells; type: functional, Homo sapiens, ATCC CRL1573; conditions: Homo sapiens, ATCC CRL1573, HEK293; ASSAY_TEST Inhibition of Cell Viability; detection method Resazurin; Fluorescence (ex560/em590); MEDIA DMEM with 10% FBS; plate type 384well; TC; CORNING #3712; time 18 hr; read-out: CC50
[8] = system: Escherichia coli; experiment: microbe, parasite or virus in culture; conditions: ATCC 25922, 18 h, ASSAY_TEST Inhibition of Bacterial Growth, detection method Absorption (OD600), MEDIA CAMHB, plate type 384well, NBS, CORNING #3640
Description: Antibacterial activity against Escherichia coli ATCC 25922 (CO-ADD:GN_001); MIC in CAMBH media using NBS plates, by OD(600)

[9] = system: Acinetobacter baumannii; experiment: microbe, parasite or virus in culture; conditions: ATCC 19606, 18 h, ASSAY_TEST Inhibition of Bacterial Growth, detection method Absorption (OD600), MEDIA CAMHB, plate type 384well, NBS, CORNING #3640
Description: Antibacterial activity against Acinetobacter baumannii ATCC 19606 (CO-ADD:GN_034); MIC in CAMBH media using NBS plates, by OD600

Row | Structure (SMILES) | MIC [1] [µM] | MIC [2] [µM] | MIC [3] [µM] | MIC [4] [µM] | MIC [5] [µM] | MIC [6] [µM] | MIC [8] [µM] | MIC [9] [µM] | CC50 [7] [µM]
1 | O=C(Nc1ccc(N2CCN(C(=O)c3ccccc3)CC2)cc1)c1ccc2c(c1)OCO2 | > 20 | > 20 | > 20 | > 20 | > 20 | > 20 | > 20 | > 20 | > 20
2 | CC1(C)Cc2c(C#N)c(SCCc3ccccc3)nc(N3CCOCC3)c2CO1 | > 20 | > 20 | > 20 | > 20 | > 20 | > 20 | > 20 | > 20 | > 20
3 | Nc1nc(O)c2ncn([C@@H]3O[C@H](CO)[C@@H](O)[C@H]3F)c2n1 | > 20 | > 20 | > 20 | > 20 | > 20 | > 20 | > 20 | > 20 | > 20
4 | Clc1cc2nc(C3CCNCC3)n(Cc3ccc(CNCCc4c[nH]cn4)cc3)c2cc1Cl | > 20 | > 20 | > 20 | > 20 | > 20 | > 20 | > 20 | > 20 | > 20
5 | CN1C(=O)C(c2ccccc2)C(=O)N(c2ccccc2)c2cc(C(F)(F)F)ccc21 (configuration not stated) | > 20 | > 20 | > 20 | > 20 | > 20 | > 20 | > 20 | > 20 | > 20
6 | C[C@H](c1cccc2ccccc12)N(C)Cc1ccccc1 | > 20 | > 20 | > 20 | > 20 | > 20 | > 20 | > 20 | > 20 | > 20
7 | CN(C)[C@@H]1C(=O)C(C(N)=O)=C(O)[C@@]2(O)C(=O)C3=C(O)c4c(O)c(NC(=O)CN5CCCC5)cc(F)c4C[C@H]3C[C@@H]12 | 0.625 (≈ 0.349 µg/mL) | 0.312 (≈ 0.175 µg/mL) | > 20 | 0.625 (≈ 0.349 µg/mL) | 10 (≈ 5.59 µg/mL) | > 20 | 0.313 (≈ 0.175 µg/mL) | > 20 | > 20
8 | CSc1ccc2c(c1)C(N1CCN(C)CC1)Cc1ccccc1S2 (configuration not stated) [METITEPINE] | > 20 | > 20 | > 20 | > 20 | > 20 | > 20 | > 20 | > 20 | > 20
9 | CC1=C(/C=C/C(C)=C/C=C/C(C)=C/C(=O)Nc2ccc(O)cc2)C(C)(C)CCC1 [FENRETINIDE] | > 20 | > 20 | > 20 | > 20 | > 20 | > 20 | > 20 | > 20 | > 20
10 | C[C@H]1CC[C@@]2(O)C(C)(C)[C@@H]3CC[C@@]2(C)[C@H]1C3 | > 20 | > 20 | > 20 | > 20 | > 20 | > 20 | > 20 | > 20 | > 20
11 | CCCCOC(=O)Nc1cc2nc(C3CCCCC3)[nH]c2cc1N(CC)CC | > 20 | > 20 | > 20 | > 20 | > 20 | > 20 | > 20 | > 20 | > 20
12 | CCCCC(CC)CNC(=N)NC(=N)NCCCCCCNC(=N)NC(=N)NCC(CC)CCCC (configuration not stated) [ALEXIDINE DIHYDROCHLORIDE] | 5 | ≤ 0.156 | ≤ 0.156 | 5 | 5 | 0.625 | 1.25 | 10 | 2.61
13 | C=CCN(C(=O)OCc1ccc([N+](=O)[O-])cc1)C1CCN(CC[C@](C)(CN(C)S(=O)(=O)c2ccccc2)c2ccccc2)CC1 | > 20 | > 20 | > 20 | > 20 | > 20 | > 20 | > 20 | > 20 | > 20
14 | O=C1NC(=O)C(Br)=C1Br | > 20 | > 20 | 10 (≈ 2.55 µg/mL) | > 20 | > 20 | 20 (≈ 5.1 µg/mL) | > 20 | > 20 | 3.28

Further lines, with some results ahead:

Row | MIC [1] [µM] | MIC [2] [µM] | MIC [3] [µM] | MIC [4] [µM] | MIC [5] [µM] | MIC [6] [µM] | MIC [8] [µM] | MIC [9] [µM] | Structure (SMILES) | CC50 [7] [µM]
15 | > 20 | 10 (≈ 3.4 µg/mL) | > 20 | > 20 | > 20 | > 20 | > 20 | > 20 | O=S(=O)(NCB(O)O)c1cc2c(Cl)ccc(Cl)c2s1 | > 20
16 | > 20 | 20 (≈ 5.05 µg/mL) | > 20 | > 20 | > 20 | > 20 | > 20 | > 20 | CCc1nc(N)nc(N)c1C#CCc1ccccc1 | > 20
17 | > 20 | > 20 | > 20 | > 20 | > 20 | > 20 | > 20 | > 20 | O=S(=O)(NCB(O)O)c1ccc(-c2nnn[nH]2)cc1C(F)(F)F | > 20
18 | > 20 | > 20 | > 20 | > 20 | > 20 | > 20 | > 20 | > 20 | COC(=O)Nc1nc2c(C)cccc2[nH]1 | > 20
19 | > 20 | > 20 | > 20 | > 20 | > 20 | > 20 | > 20 | > 20 | CCc1c(O)nc2ccc(F)cc2c1OCC1CCC1 | > 20
20 | > 20 | > 20 | 2.5 | > 20 | > 20 | ≤ 0.156 | > 20 | > 20 | CNCC(=O)OCc1cccnc1N(C)C(=O)OC(C)[n+]1cnn(C[C@](O)(c2cc(F)ccc2F)[C@@H](C)c2nc(-c3ccc(C#N)cc3)cs2)c1 (some centres not stated) [ISAVUCONAZONIUM] | > 20
21 | > 20 | > 20 | > 20 | > 20 | > 20 | > 20 | > 20 | > 20 | CS(=O)(=O)c1ccc(Oc2ccc(Cl)cc2)cc1 | > 20
22 | > 20 | 10 (≈ 3.08 µg/mL) | > 20 | > 20 | > 20 | > 20 | > 20 | > 20 | CC(C)(C)c1cccc(-c2nc3cc(C(=N)N)ccc3[nH]2)c1O | > 20
23 | > 20 | > 20 | > 20 | > 20 | > 20 | > 20 | > 20 | > 20 | Cn1c2ccccc2c(=O)c2c(O)cccc21 | > 20
24 | > 20 | > 20 | > 20 | > 20 | > 20 | > 20 | > 20 | > 20 | Nc1cccc(-c2nc(N)nc(NC3Cc4ccccc4C3)n2)c1 | > 20
25 | > 20 | > 20 | > 20 | > 20 | > 20 | > 20 | > 20 | > 20 | CCCCc1ccc(-c2cc(C(=O)O)cc(-c3ccc(Cl)cc3)n2)cc1 | > 20
26 | > 20 | > 20 | > 20 | > 20 | > 20 | > 20 | > 20 | > 20 | O=C(Nc1ccccc1C(=O)O)c1cccc(Oc2ccccc2)c1 | > 20
27 | > 20 | > 20 | > 20 | > 20 | > 20 | > 20 | > 20 | > 20 | CC(=O)Nc1cc(NS(=O)(=O)c2ccc(Cl)cc2)cc2c(Cl)[nH]nc12 | > 20
28 | > 20 | > 20 | > 20 | > 20 | > 20 | > 20 | > 20 | > 20 | Fc1ccc2c(/C=C/c3nnn[nH]3)c[nH]c2c1 | > 20
